For series [1] the following is noted: literature (Voet and Voet); cited from earlier work.
A short description of series [2]: Glycerol 2-phosphate titration followed by 31P chemical shift and pH at different temperatures. Type of series: physicochemical. From the text:
In order to measure the variation of the polyelectrolyte ionization degree (chitosan in the present case), we performed NMR measurements of the glycerol 2-phosphate (GP) ^31P chemical shift. Glycerol 2-phosphate titration curve at different temperatures allow determination pKa2^GP, δa and δb by fitting pH and δ values of the following equation
where δa and δb are the chemical shifts of ^31P in the monovalent and divalent form of GP, respectively.
This last equation is valid for ideal solutions where the proton activity coefficient is γH+=1.
We dissolve 0.594 g of glycerol 2-phosphate (Sigma, No. Cat. G-9891, 297 g/mol with 4.5 moles H2O per mole of GP) in 18 mL H2Odd and 2 mL D2O (Aldrich, No. Cat. 15,188-2-250G) in a graduate cylinder giving a CGP concentration of 100 mM. A total of 11 solutions (see Table 3) with different ionization degree are prepared from this base solution. The pH is measured with an Accumet meter, model 20 using an electrode 9803BN from Orion.

A short description of series [3]: Diffusion of GP from chitosan gel into DMEM bath, phosphorus by Kjeldahl digestion. Format: physicochemical. Particulars: GP concentration in DMEM bath over time vs free diffusion model. The text has this:
Here we provide evidence that supports the notion that there is no ionic cross-link between the polyelectrolyte and the counter-ion, using gels kept in contact with a bath solution to allow the weak electrolyte (glycerol 2-phosphate in this example) to diffuse out of the gel. […] A simple diffusion model predicted the diffusion profile and allowed the calculation of the diffusion constant in the gel (see section “Diffusion from a gel to a washing solution”) showing an absence of binding with the chitosan gel component.
A 7.5 mL solution (see Table 6) containing chitosan (2.93% w/v Protosan UP CL 213) was placed on ice at 4° C. To this solution, we added 2.25 mL glucosamine (2.16% w/v) drop by drop every 15 seconds followed by 1 mL glycerol 2-phosphate (GP) (33.3% w/v) and 2 mL of hydroxyethyl cellulose. […]
Samples of gel were then taken for analysis of phosphorus content and additional gel samples also taken following three subsequent washes in DMEM for 60 minutes each. Phosphorus was quantified using the established method of Kjeldahl digestion (Liao, N., Total phosphorus in Kjeldahl digests, Milwaukee, Wis.: LACHAT Instruments, 25 p., QuickChem Method 10-115-01-1-C, 1993) followed by the analysis of the absorption at 880 nm of the PO4^3− complex with ammonium molybdate and antimony potassic tartrate.
Concentration cp^m is the measured concentration from the absorption at 880 nm. […]

Turning to `O=P(O)(O)O` [phosphate, inorganic phosphate], in series [1], the “Ka1^P” value is given as “approximately 2.2” and the “Ka2^P” value was about 6.8.
In the case of `O=P(O)(O)OC(CO)CO` [GP, glycerol 2-phosphate], the “pKa2^GP” value in series [2] (5 ° C.) is given as 6.13; in series [2] (15 ° C.), 6.14; in series [2] (25 ° C.), 6.16; in series [2] (37 ° C.), 6.16. For the same compound, the “binding of GP to the components of the gel” value in series [3] is recorded as “lack of binding”.

(Values after patent US20110313056A1 (BIO SYNTECH CANADA INC., priority 2005, published 2011).)
